This passage reports IC50 results from BindingDB's records for doi:10.1016/j.bmcl.2012.11.020 (Glaxosmithkline, 2012).

pIC50: −log10 of the molar value. A value given as a limit tells only on which side of the number the result lay.

Chain of Serine/threonine-protein kinase B-raf (P15056 whole entry): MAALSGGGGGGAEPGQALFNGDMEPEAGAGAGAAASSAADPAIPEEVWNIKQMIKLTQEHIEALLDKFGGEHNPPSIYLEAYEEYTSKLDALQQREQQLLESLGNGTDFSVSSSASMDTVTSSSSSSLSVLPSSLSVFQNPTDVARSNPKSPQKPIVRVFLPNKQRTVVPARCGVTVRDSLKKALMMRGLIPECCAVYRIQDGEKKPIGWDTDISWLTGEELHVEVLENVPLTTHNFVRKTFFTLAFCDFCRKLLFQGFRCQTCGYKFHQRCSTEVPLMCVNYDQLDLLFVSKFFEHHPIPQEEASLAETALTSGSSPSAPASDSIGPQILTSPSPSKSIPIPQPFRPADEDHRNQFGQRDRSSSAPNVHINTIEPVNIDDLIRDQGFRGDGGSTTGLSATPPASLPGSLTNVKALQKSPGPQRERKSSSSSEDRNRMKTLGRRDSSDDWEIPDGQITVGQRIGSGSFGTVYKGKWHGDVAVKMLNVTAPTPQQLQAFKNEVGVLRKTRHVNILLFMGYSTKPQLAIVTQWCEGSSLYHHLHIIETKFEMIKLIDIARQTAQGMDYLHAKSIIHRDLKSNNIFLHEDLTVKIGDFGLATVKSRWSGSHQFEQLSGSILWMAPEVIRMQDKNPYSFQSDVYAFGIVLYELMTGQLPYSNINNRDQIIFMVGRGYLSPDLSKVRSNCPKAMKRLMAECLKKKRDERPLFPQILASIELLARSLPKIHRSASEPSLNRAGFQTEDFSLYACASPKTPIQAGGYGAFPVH

The assay addresses Serine/threonine-protein kinase B-raf (Homo sapiens, UniProt P15056). Kind of assay: Inhibition of B-Raf (unknown origin) expressed in mouse 3T3 cells co-expressing FLAG-tagged MEK1 assessed as inhibition of MEK1 phosphorylation after 2 hrs by ELISA. (In general: An ELISA detects its analyte on a solid surface through an enzyme-linked reagent.)
The pIC50 is the IC50 on a negative log10 scale, so that one unit is a factor of ten. Consider `Nc1ncc(-c2cccnc2)c2scc(-c3cccc(NC(=O)Nc4ccc(OCc5ccccc5)cc4)c3)c12`, for which the pIC50 was under 5.00.
Then `COc1cccc(NC(=O)Nc2cccc(-c3csc4c(-c5cccnc5)cnc(N)c34)c2)c1`, with 6.15.
Turning to `Nc1ncc(-c2cccnc2)c2scc(-c3cccc(NC(=O)NC4CCCCC4)c3)c12`, the pIC50 is 5.39.
Then `Cc1noc(C)c1NC(=O)Nc1cccc(-c2csc3c(-c4cccnc4)cnc(N)c23)c1`, with under 5.00; and `Nc1ncc(-c2cccnc2)c2scc(-c3cccc(NC(=O)C4CCCCC4)c3)c12`, with under 5.00.
